Reference: US10765114B2, “4-amino-6-(pyridyl and 2-substitutedphenyl)-picolinates and 6-amino-2-(pyridyl and 2-substitutedphenyl)-pyrimidine-4-carboxylates and their use as herbicides” (Dow AgroSciences LLC, priority 2013, dated 2020)

System: Key Grass and Sedge Weeds as well as Grass Crops
Assay: Post-Emergent Test II (Table 6)
Assay type: in vivo
Conditions: post-emergence, 336 h, CYPSS, 70 g ai/ha, 14 days after application, read-out: Visual Growth Reduction (%) 14 Days After Application CYPSS
Summary of the method: (§1)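 Visual injury ratings (0 = no injury, 100 = complete kill) were taken 14 days after treatment relative to untreated plants. Seedlings at the first or second true leaf stage received an overhead spray at 187 L/ha, and solvent-blank sprayed plants served as controls.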

Structure (SMILES) | pest or weed control at 70 g/ha [%]
Cc1c(-c2ccc(C(F)(F)F)nc2)nc(C(=O)O)c(Cl)c1N [Compound 51, 4-amino-5-chloro-3-methyl-6′-(trifluoromethyl)-[2,3′-bipyridine]-6-carboxylic acid] | 95 to 100

Same assay, conditions: post-emergence, 336 h, CYPSS, 140 g ai/ha, 14 days after application, read-out: Visual Growth Reduction (%) 14 Days After Application CYPSS

Structure (SMILES) | pest or weed control at 140 g/ha [%]
Cc1c(-c2ccc(C(F)(F)F)nc2)nc(C(=O)O)c(Cl)c1N [Compound 51, 4-amino-5-chloro-3-methyl-6′-(trifluoromethyl)-[2,3′-bipyridine]-6-carboxylic acid] | 95 to 100

Same assay, conditions: post-emergence, 336 h, DIGSA: crabgrass (Digitaria sanguinalis), 70 g ai/ha, 14 days after application, read-out: Visual Growth Reduction (%) 14 Days After Application DIGSA

Structure (SMILES) | pest or weed control at 70 g/ha [%]
Cc1c(-c2ccc(C(F)(F)F)nc2)nc(C(=O)O)c(Cl)c1N [Compound 51, 4-amino-5-chloro-3-methyl-6′-(trifluoromethyl)-[2,3′-bipyridine]-6-carboxylic acid] | 60 to 74

Same assay, conditions: post-emergence, 336 h, DIGSA: crabgrass (Digitaria sanguinalis), 140 g ai/ha, 14 days after application, read-out: Visual Growth Reduction (%) 14 Days After Application DIGSA

Structure (SMILES) | pest or weed control at 140 g/ha [%]
Cc1c(-c2ccc(C(F)(F)F)nc2)nc(C(=O)O)c(Cl)c1N [Compound 51, 4-amino-5-chloro-3-methyl-6′-(trifluoromethyl)-[2,3′-bipyridine]-6-carboxylic acid] | 60 to 74

Same assay, conditions: post-emergence, 336 h, ORYSS (crop), 70 g ai/ha, 14 days after application, read-out: Visual Growth Reduction (%) 14 Days After Application ORYSS

Structure (SMILES) | pest or weed control at 70 g/ha [%]
Cc1c(-c2ccc(C(F)(F)F)nc2)nc(C(=O)O)c(Cl)c1N [Compound 51, 4-amino-5-chloro-3-methyl-6′-(trifluoromethyl)-[2,3′-bipyridine]-6-carboxylic acid] | 0 to 29

Same assay, conditions: post-emergence, 336 h, ORYSS (crop), 140 g ai/ha, 14 days after application, read-out: Visual Growth Reduction (%) 14 Days After Application ORYSS

Structure (SMILES) | pest or weed control at 140 g/ha [%]
Cc1c(-c2ccc(C(F)(F)F)nc2)nc(C(=O)O)c(Cl)c1N [Compound 51, 4-amino-5-chloro-3-methyl-6′-(trifluoromethyl)-[2,3′-bipyridine]-6-carboxylic acid] | 0 to 29

Same assay, conditions: post-emergence, 336 h, SORVU: grain sorghum (Sorghum vulgare), 70 g ai/ha, 14 days after application, read-out: Visual Growth Reduction (%) 14 Days After Application SORVU

Structure (SMILES) | pest or weed control at 70 g/ha [%]
Cc1c(-c2ccc(C(F)(F)F)nc2)nc(C(=O)O)c(Cl)c1N [Compound 51, 4-amino-5-chloro-3-methyl-6′-(trifluoromethyl)-[2,3′-bipyridine]-6-carboxylic acid] | 75 to 84

Same assay, conditions: post-emergence, 336 h, SORVU: grain sorghum (Sorghum vulgare), 140 g ai/ha, 14 days after application, read-out: Visual Growth Reduction (%) 14 Days After Application SORVU

Structure (SMILES) | pest or weed control at 140 g/ha [%]
Cc1c(-c2ccc(C(F)(F)F)nc2)nc(C(=O)O)c(Cl)c1N [Compound 51, 4-amino-5-chloro-3-methyl-6′-(trifluoromethyl)-[2,3′-bipyridine]-6-carboxylic acid] | 75 to 84

Same assay, conditions: post-emergence, 336 h, TRZSS (crop), 70 g ai/ha, 14 days after application, read-out: Visual Growth Reduction (%) 14 Days After Application TRZSS

Structure (SMILES) | pest or weed control at 70 g/ha [%]
Cc1c(-c2ccc(C(F)(F)F)nc2)nc(C(=O)O)c(Cl)c1N [Compound 51, 4-amino-5-chloro-3-methyl-6′-(trifluoromethyl)-[2,3′-bipyridine]-6-carboxylic acid] | 30 to 44

Same assay, conditions: post-emergence, 336 h, TRZSS (crop), 140 g ai/ha, 14 days after application, read-out: Visual Growth Reduction (%) 14 Days After Application TRZSS

Structure (SMILES) | pest or weed control at 140 g/ha [%]
Cc1c(-c2ccc(C(F)(F)F)nc2)nc(C(=O)O)c(Cl)c1N [Compound 51, 4-amino-5-chloro-3-methyl-6′-(trifluoromethyl)-[2,3′-bipyridine]-6-carboxylic acid] | 45 to 59

Same assay, conditions: post-emergence, 336 h, ZEAMX: maize, corn (Zea mays), 70 g ai/ha, 14 days after application, read-out: Visual Growth Reduction (%) 14 Days After Application ZEAMX

Structure (SMILES) | pest or weed control at 70 g/ha [%]
Cc1c(-c2ccc(C(F)(F)F)nc2)nc(C(=O)O)c(Cl)c1N [Compound 51, 4-amino-5-chloro-3-methyl-6′-(trifluoromethyl)-[2,3′-bipyridine]-6-carboxylic acid] | 60 to 74

Same assay, conditions: post-emergence, 336 h, ZEAMX: maize, corn (Zea mays), 140 g ai/ha, 14 days after application, read-out: Visual Growth Reduction (%) 14 Days After Application ZEAMX

Structure (SMILES) | pest or weed control at 140 g/ha [%]
Cc1c(-c2ccc(C(F)(F)F)nc2)nc(C(=O)O)c(Cl)c1N [Compound 51, 4-amino-5-chloro-3-methyl-6′-(trifluoromethyl)-[2,3′-bipyridine]-6-carboxylic acid] | 60 to 74

System: Key Broadleaf Weed and Crop Species
Assay: Post-Emergent Test II (Table 5)
Assay type: in vivo
Conditions: Abutilon theophrasti, post-emergence, 336 h, ABUTH: velvetleaf (Abutilon theophrasti), application rate 70 (kg ai/ha; footnote: g ai/ha), read-out: Visual Growth Reduction (%) 14 Days After Application ABUTH
Summary of the method: as §1

Structure (SMILES) | pest or weed control at 70 g/ha [%]
Cc1c(-c2ccc(C(F)(F)F)nc2)nc(C(=O)O)c(Cl)c1N [Compound 51, 4-amino-5-chloro-3-methyl-6′-(trifluoromethyl)-[2,3′-bipyridine]-6-carboxylic acid] | 0 to 29

Same assay, conditions: Abutilon theophrasti, post-emergence, 336 h, ABUTH: velvetleaf (Abutilon theophrasti), application rate 140 (kg ai/ha; footnote: g ai/ha), read-out: Visual Growth Reduction (%) 14 Days After Application ABUTH

Structure (SMILES) | pest or weed control at 140 g/ha [%]
Cc1c(-c2ccc(C(F)(F)F)nc2)nc(C(=O)O)c(Cl)c1N [Compound 51, 4-amino-5-chloro-3-methyl-6′-(trifluoromethyl)-[2,3′-bipyridine]-6-carboxylic acid] | 0 to 29

Same assay, conditions: Amaranthus retroflexus, post-emergence, 336 h, AMARE: redroot pigweed (Amaranthus retroflexus), application rate 70 (kg ai/ha; footnote: g ai/ha), read-out: Visual Growth Reduction (%) 14 Days After Application AMARE

Structure (SMILES) | pest or weed control at 70 g/ha [%]
Cc1c(-c2ccc(C(F)(F)F)nc2)nc(C(=O)O)c(Cl)c1N [Compound 51, 4-amino-5-chloro-3-methyl-6′-(trifluoromethyl)-[2,3′-bipyridine]-6-carboxylic acid] | 0 to 29

Same assay, conditions: Amaranthus retroflexus, post-emergence, 336 h, AMARE: redroot pigweed (Amaranthus retroflexus), application rate 140 (kg ai/ha; footnote: g ai/ha), read-out: Visual Growth Reduction (%) 14 Days After Application AMARE

Structure (SMILES) | pest or weed control at 140 g/ha [%]
Cc1c(-c2ccc(C(F)(F)F)nc2)nc(C(=O)O)c(Cl)c1N [Compound 51, 4-amino-5-chloro-3-methyl-6′-(trifluoromethyl)-[2,3′-bipyridine]-6-carboxylic acid] | 0 to 29

Same assay, conditions: Brassica napus, post-emergence, 336 h, BRSSS: oilseed rape, canola (Brassica napus), application rate 70 (kg ai/ha; footnote: g ai/ha), read-out: Visual Growth Reduction (%) 14 Days After Application BRSSS

Structure (SMILES) | pest or weed control at 70 g/ha [%]
Cc1c(-c2ccc(C(F)(F)F)nc2)nc(C(=O)O)c(Cl)c1N [Compound 51, 4-amino-5-chloro-3-methyl-6′-(trifluoromethyl)-[2,3′-bipyridine]-6-carboxylic acid] | 60 to 74

Same assay, conditions: Brassica napus, post-emergence, 336 h, BRSSS: oilseed rape, canola (Brassica napus), application rate 140 (kg ai/ha; footnote: g ai/ha), read-out: Visual Growth Reduction (%) 14 Days After Application BRSSS

Structure (SMILES) | pest or weed control at 140 g/ha [%]
Cc1c(-c2ccc(C(F)(F)F)nc2)nc(C(=O)O)c(Cl)c1N [Compound 51, 4-amino-5-chloro-3-methyl-6′-(trifluoromethyl)-[2,3′-bipyridine]-6-carboxylic acid] | 85 to 94

Same assay, conditions: Chenopodium album, post-emergence, 336 h, CHEAL: lambsquarters (Chenopodium album), application rate 70 (kg ai/ha; footnote: g ai/ha), read-out: Visual Growth Reduction (%) 14 Days After Application CHEAL

Structure (SMILES) | pest or weed control at 70 g/ha [%]
Cc1c(-c2ccc(C(F)(F)F)nc2)nc(C(=O)O)c(Cl)c1N [Compound 51, 4-amino-5-chloro-3-methyl-6′-(trifluoromethyl)-[2,3′-bipyridine]-6-carboxylic acid] | 0 to 29

Same assay, conditions: Chenopodium album, post-emergence, 336 h, CHEAL: lambsquarters (Chenopodium album), application rate 140 (kg ai/ha; footnote: g ai/ha), read-out: Visual Growth Reduction (%) 14 Days After Application CHEAL

Structure (SMILES) | pest or weed control at 140 g/ha [%]
Cc1c(-c2ccc(C(F)(F)F)nc2)nc(C(=O)O)c(Cl)c1N [Compound 51, 4-amino-5-chloro-3-methyl-6′-(trifluoromethyl)-[2,3′-bipyridine]-6-carboxylic acid] | 85 to 94

Same assay, conditions: Euphorbia heterophylla, post-emergence, 336 h, EPHHL: wild poinsettia (Euphorbia heterophylla), application rate 70 (kg ai/ha; footnote: g ai/ha), read-out: Visual Growth Reduction (%) 14 Days After Application EPHHL

Structure (SMILES) | pest or weed control at 70 g/ha [%]
Cc1c(-c2ccc(C(F)(F)F)nc2)nc(C(=O)O)c(Cl)c1N [Compound 51, 4-amino-5-chloro-3-methyl-6′-(trifluoromethyl)-[2,3′-bipyridine]-6-carboxylic acid] | 0 to 29

Same assay, conditions: Euphorbia heterophylla, post-emergence, 336 h, EPHHL: wild poinsettia (Euphorbia heterophylla), application rate 140 (kg ai/ha; footnote: g ai/ha), read-out: Visual Growth Reduction (%) 14 Days After Application EPHHL

Structure (SMILES) | pest or weed control at 140 g/ha [%]
Cc1c(-c2ccc(C(F)(F)F)nc2)nc(C(=O)O)c(Cl)c1N [Compound 51, 4-amino-5-chloro-3-methyl-6′-(trifluoromethyl)-[2,3′-bipyridine]-6-carboxylic acid] | 0 to 29

Same assay, conditions: Helianthus annuus, post-emergence, 336 h, HELAN: sunflower (Helianthus annuus), application rate 70 (kg ai/ha; footnote: g ai/ha), read-out: Visual Growth Reduction (%) 14 Days After Application HELAN

Structure (SMILES) | pest or weed control at 70 g/ha [%]
Cc1c(-c2ccc(C(F)(F)F)nc2)nc(C(=O)O)c(Cl)c1N [Compound 51, 4-amino-5-chloro-3-methyl-6′-(trifluoromethyl)-[2,3′-bipyridine]-6-carboxylic acid] | 85 to 94

Same assay, conditions: Helianthus annuus, post-emergence, 336 h, HELAN: sunflower (Helianthus annuus), application rate 140 (kg ai/ha; footnote: g ai/ha), read-out: Visual Growth Reduction (%) 14 Days After Application HELAN

Structure (SMILES) | pest or weed control at 140 g/ha [%]
Cc1c(-c2ccc(C(F)(F)F)nc2)nc(C(=O)O)c(Cl)c1N [Compound 51, 4-amino-5-chloro-3-methyl-6′-(trifluoromethyl)-[2,3′-bipyridine]-6-carboxylic acid] | 85 to 94

Same assay, conditions: Viola tricolor, post-emergence, 336 h, VIOTR: wild pansy (Viola tricolor), application rate 70 (kg ai/ha; footnote: g ai/ha), read-out: Visual Growth Reduction (%) 14 Days After Application VIOTR

Structure (SMILES) | pest or weed control at 70 g/ha [%]
Cc1c(-c2ccc(C(F)(F)F)nc2)nc(C(=O)O)c(Cl)c1N [Compound 51, 4-amino-5-chloro-3-methyl-6′-(trifluoromethyl)-[2,3′-bipyridine]-6-carboxylic acid] | 0 to 29

Same assay, conditions: Viola tricolor, post-emergence, 336 h, VIOTR: wild pansy (Viola tricolor), application rate 140 (kg ai/ha; footnote: g ai/ha), read-out: Visual Growth Reduction (%) 14 Days After Application VIOTR

Structure (SMILES) | pest or weed control at 140 g/ha [%]
Cc1c(-c2ccc(C(F)(F)F)nc2)nc(C(=O)O)c(Cl)c1N [Compound 51, 4-amino-5-chloro-3-methyl-6′-(trifluoromethyl)-[2,3′-bipyridine]-6-carboxylic acid] | 0 to 29

System: not given
Assay: not given
Conditions: not given

melting point [°C] | Structure (SMILES)
140 to 160 | Cc1c(-c2ccc(C(F)(F)F)nc2)nc(C(=O)O)c(Cl)c1N [Compound 51, 4-amino-5-chloro-3-methyl-6′-(trifluoromethyl)-[2,3′-bipyridine]-6-carboxylic acid]
